Test results taken from patent US11214803B2, “Modulators of YAP1 expression” (Ionis Pharmaceuticals, Inc., priority 2019, dated 2022).
Marks after values point to notes of the source that are not given here. Strand notation (5' to 3'): a small letter for the sugar, then the base; units joined by * are phosphorothioate-linked, units joined directly phosphodiester-linked; [ ] holds rarer units or linkages, { } end groups; capitals alone tell only the bases. k = constrained ethyl (cEt); [5mC] = 5-methylcytosine; d = 2'-deoxy (DNA)

Test system: Yap1 mRNA
Assay: Antisense inhibition of human Yap1 in A-431 cells by cEt gapmers, single dose (Example 2, RTS4814)
Type: cell-based
How it was run: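 Each 16-nucleoside gapmer (ten-deoxy gap, three-cEt wings) is tested once at 2,000 nM in A-431 cells by free uptake. Yap1 mRNA after about 48 hours is measured by quantitative RT-PCR and expressed relative to untreated control.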

[1] = Table 18, A-431 cells, 5,000 cells per well, free uptake, 2,000 nM modified oligonucleotide, approx. 48 hours, RTS4814, normalized to RIBOGREEN, Yap1 mRNA as percent of untreated control
[2] = Table 6, A-431 cells, 5,000 cells per well, free uptake, 2,000 nM modified oligonucleotide, approx. 48 hours, RTS4814, normalized to RIBOGREEN, Yap1 mRNA relative to untreated control cells
[3] = Table 21, Yap1 mRNA, percent of untreated control, 3-10-3 cEt gapmers targeting SEQ ID NO.: 1 and 2
[4] = Table 23, Yap1 mRNA as percent of untreated control, 3-10-3 cEt gapmers, single dose
[5] = Table 19, A-431 cells, 5,000 cells per well, free uptake, 2,000 nM modified oligonucleotide, approx. 48 hours, RTS4814, normalized to RIBOGREEN, Yap1 mRNA as percent of untreated control
[6] = Table 25, Yap1 mRNA as percent of untreated control, 3-10-3 cEt gapmers targeting SEQ ID NO.: 1, and 2

In the case of “1076420 (k[5mC]*k[5mC]*kA*dT*dA*dT*dA*dA*dT*dA*dA*d[5mC]*d[5mC]*k[5mC]*kA*kT; antisense) [Compound 1076420]”, the “YAP1 (% UTC)” value [1] is reported as 26 % UTC.
For “1076179 (kA*kA*kT*dT*dA*dG*d[5mC]*d[5mC]*dA*dA*d[5mC]*d[5mC]*dA*k[5mC]*k[5mC]*kT; antisense) [compound 1076179]”, the “YAP1 (% UTC)” value (Table 33, Yap1 mRNA, percent of untreated control, 3-10-3 cEt gapmers targeting SEQ ID NO.: 1, and 2) was 38 % UTC.
For “1075208 (antisense kA*k[5mC]*kT*dG*dA*dA*d[5mC]*dA*d[5mC]*dA*dG*dG*d[5mC]*kT*kA*k[5mC]) [Compound 1075208]”, the “YAP1 (% UTC)” value (Table 22, Yap1 mRNA as percent of untreated control, 3-10-3 cEt gapmers, single dose) was 24 % UTC.
For “1075396 (kA*kT*kT*dA*dT*d[5mC]*dG*d[5mC]*dA*d[5mC]*dA*dT*dA*k[5mC]*kA*kT; antisense) [Compound 1075396]”, the “YAP1 (% UTC)” value [1] was 89 % UTC.
In the case of “716573 (kA*kG*kT*dT*dA*d[5mC]*dT*dA*d[5mC]*dT*dG*dT*dA*kA*kT*k[5mC]; antisense) [Compound 716573]”, the “YAP1 (% UTC)” value [2] is reported as 116 % UTC.
“1074375 (antisense kG*k[5mC]*kA*dG*dG*dG*dT*dG*d[5mC]*dT*dT*dT*dG*kG*kT*kT) [Compound 1074375]” was tested, and the “YAP1 (% UTC)” value [3] was 33 % UTC.
In the case of “1074992 (antisense k[5mC]*kA*kA*dT*dT*dA*dT*dT*dT*dG*dA*d[5mC]*dT*k[5mC]*k[5mC]*k[5mC]) [compound 1074992]”, the “YAP1 (% UTC)” value (Yap1 mRNA as percent of untreated control, A-431 cells, 3-10-3 cEt gapmers targeting SEQ ID NO.: 1, and 2, Table 30) is reported as 63 % UTC.
For “716443 (kT*kT*kA*dT*dG*dT*dG*dA*d[5mC]*dT*dA*dA*dT*kG*kA*kT; antisense) [Compound 716443]”, the “YAP1 (% UTC)” value (Table 5, A-431 cells, 5,000 cells per well, free uptake, 2,000 nM modified oligonucleotide, approx. 48 hours, RTS4814, normalized to RIBOGREEN, Yap1 mRNA relative to untreated control cells) was 73 % UTC.
In the case of “1074441 (k[5mC]*kA*kA*dA*d[5mC]*dT*dA*dA*dA*dT*dG*d[5mC]*dT*kG*kT*kG; antisense) [Compound 1074441]”, the “YAP1 (% UTC)” value [4] is reported as 5* % UTC.
“1076389 (kA*kT*k[5mC]*dG*dA*dA*dA*dT*dA*dT*dT*d[5mC]*dG*kA*kG*kA; antisense) [Compound 1076389]” was tested, and the “YAP1 (% UTC)” value [5] was 76 % UTC.
“1076169 (k[5mC]*kT*kA*d[5mC]*dT*dA*dT*dA*dT*d[5mC]*dT*dT*dT*kG*kG*kG; antisense) [Compound 1076169]” was tested, and the “YAP1 (% UTC)” value [4] was 10 % UTC.
For “1075083 (antisense k[5mC]*kA*kA*d[5mC]*dA*dA*d[5mC]*dA*d[5mC]*dT*d[5mC]*d[5mC]*dT*k[5mC]*kT*kT) [Compound 1075083]”, the “YAP1 (% UTC)” value [6] was 54 % UTC.
“1074674 (antisense kT*kA*kT*dA*dG*dG*d[5mC]*dA*d[5mC]*dT*d[5mC]*d[5mC]*dT*kT*k[5mC]*k[5mC]) [compound 1074674]” was tested, and the “YAP1 (% UTC)” value (Table 32, Yap1 mRNA, percent of untreated control, 3-10-3 cEt gapmers targeting SEQ ID NO.: 1, and 2) was 22 % UTC.
With “1074154 (antisense k[5mC]*k[5mC]*kA*d[5mC]*dG*dG*dG*d[5mC]*d[5mC]*dG*dA*dG*dG*kT*kG*kG) [Compound 1074154]” the “YAP1 (% UTC)” value (Table 24, Yap1 mRNA as percent of untreated control, 3-10-3 cEt gapmers targeting SEQ ID NO.: 1, and 2) was 100 % UTC.
With “716465 (kG*k[5mC]*kT*d[5mC]*dT*dT*dT*d[5mC]*dT*dA*dG*dA*dA*k[5mC]*kA*k[5mC]; antisense) [Compound 716465]” the “YAP1 (% UTC)” value [2] was 82 % UTC.
In the case of “1074343 (antisense kA*kG*kA*d[5mC]*dA*dT*d[5mC]*d[5mC]*d[5mC]*dG*dG*dG*dA*kG*kA*kA) [Compound 1074343]”, the “YAP1 (% UTC)” value [3] is reported as 18 % UTC.
In the case of “1075115 (antisense kG*kT*kA*dT*dA*dG*d[5mC]*d[5mC]*dT*dT*dA*dT*dT*k[5mC]*kT*kT) [Compound 1075115]”, the “YAP1 (% UTC)” value [6] is reported as 6 % UTC.
In the case of “1076005 (kG*kT*kA*d[5mC]*dA*dA*dA*dA*dT*d[5mC]*dT*d[5mC]*d[5mC]*kA*kG*kG; antisense) [Compound 1076005]”, the “YAP1 (% UTC)” value [5] is reported as 69 % UTC.
“1075921 (antisense kG*kA*kA*dA*dG*dA*dA*dA*dG*d[5mC]*dT*dG*d[5mC]*kG*k[5mC]*kA) [compound 1075921]” was tested, and the “YAP1 (% UTC)” value (Yap1 mRNA as percent of untreated control, A-431 cells, 3-10-3 cEt gapmers targeting SEQ ID NO.: 1, and 2, Table 31) was 93 % UTC.
For “716349 (kA*k[5mC]*kT*dT*dT*dT*dT*d[5mC]*d[5mC]*d[5mC]*dT*d[5mC]*d[5mC]*kA*kA*k[5mC]; antisense) [Compound 716349]”, the “YAP1 (% UTC)” value (A-431 cells, 5,000 cells per well, free uptake, 2,000 nM modified oligonucleotide, approx. 48 hours, RTS4814, normalized to RIBOGREEN, Table 4, asterisk (*) = targets amplicon region of primer probe set) was 78 % UTC.
“1075524 (kT*kA*kA*dT*dT*dA*dA*dG*dG*dG*d[5mC]*d[5mC]*d[5mC]*kA*k[5mC]*kA; antisense) [Compound 1075524]” was tested, and the “YAP1 (% UTC)” value [1] was 71 % UTC.
